From patent US20210236391A1, “Dental Product, use of a Dental Product and methods of use of a dental product” (DR HEFF'S PRODUCTS LIMITED, priority 2015, published 2021)
“Also recorded” adds a separate entry of the source.

Key:
[1] = Rhodamine B fluorescence intensity (lesion porosity) after in vitro pH-proteolytic cycling; set-up: species or system bovine; details: for decrease percentage of the mean Rhodamine fluorescence (F) exhibited by caries lesions: after treatments (suspended in artificial saliva, 5 times per day for 3 minutes) and pH-proteolytic cycling for 8 days
Protocol: An objective of the experimental study was to investigate the effects of mints containing bioactive agents, specifically the xylitol, ACP and eGCG, in the re-mineralization of root dentin surfaces. […] The caries lesions depths and porosity as well as mineral density (hydroxyapatite content) were estimated using fluorescence microscopy and micro-computed tomography. Extracted sound bovine incisors were freshly collected from a slaughterhouse, cleaned and stored at 4° C. in 0.1% thymol for no longer than 2 weeks. Two root fragments (5×4×1 mm) from the cervical portion (mesial and distal) of the root were obtained from each tooth using diamond disk mounted in a cutting machine (Isomet 1000, Buehler, Lake Bluff, IL, USA). The dentin surfaces were polished using #600 and #800 abrasive paper (Carbimet, Buehler) under constant water irrigation. The entire surface of the fragments was sealed with acid-resistant nail polish, except for a 4×3 mm window on the polished dentin surface. The root fragments were placed in a demineralization solution (2.2 mM CaCl2.2H2O, 2.2 mM KH2PO4, 50 mM acetate, pH 4.6) for 96 h at 37° C. to create initial caries lesions of approximately 120 μm-deep (1). Following lesion development, the fragments were rinsed thoroughly with deionized water, and half of the specimens' windows were covered with an acid-resistant nail polish to maintain the baseline lesion. […] The concentrations were optimized to simulate the in vivo conditions in which the normal salivary flow is 0.5 mL/min (2). Thus, one third of the mints (g) were dissolved in 0.5 ml of artificial saliva and the ingredients concentrations were kept at same ratio as in the original mint formulation. […] All solutions were prepared daily prior to use. In addition to pH cycling, the overnight re-mineralization solutions had bacterial collagenase from Chlostridium Histolycum (100 μg/ml) to simulate enzymatic challenge. Each specimen was sectioned perpendicularly to the varnished area so that each section included the baseline and post-treatment lesions. Half of each sample was used for fluorescence microscopy and the other half was used for micro-computed tomography. […] The assumption of equality of variances and normal distribution of errors were verified using Levene's test. Analysis of variance (ANOVA) followed by Scheffe or Game-Howell tests were performed at α=0.05 using SPSS 20 software.

[2] = Apparent mineral density by micro-computed tomography after in vitro pH-proteolytic cycling; set-up: species or system bovine; details: for increase percentage of the apparent mineral density (mg HA/ccm): mean values after pH-proteolytic cycling and treatments, micro-CT; for effect on mineral density of the caries lesion (in words): after pH-proteolytic cycling and treatments, compared to AS control
Protocol: An objective of the experimental study was to investigate the effects of mints containing bioactive agents, specifically the xylitol, ACP and eGCG, in the re-mineralization of root dentin surfaces. […] The caries lesions depths and porosity as well as mineral density (hydroxyapatite content) were estimated using fluorescence microscopy and micro-computed tomography. Extracted sound bovine incisors were freshly collected from a slaughterhouse, cleaned and stored at 4° C. in 0.1% thymol for no longer than 2 weeks. Two root fragments (5×4×1 mm) from the cervical portion (mesial and distal) of the root were obtained from each tooth using diamond disk mounted in a cutting machine (Isomet 1000, Buehler, Lake Bluff, IL, USA). The dentin surfaces were polished using #600 and #800 abrasive paper (Carbimet, Buehler) under constant water irrigation. The entire surface of the fragments was sealed with acid-resistant nail polish, except for a 4×3 mm window on the polished dentin surface. The root fragments were placed in a demineralization solution (2.2 mM CaCl2.2H2O, 2.2 mM KH2PO4, 50 mM acetate, pH 4.6) for 96 h at 37° C. to create initial caries lesions of approximately 120 μm-deep (1). Following lesion development, the fragments were rinsed thoroughly with deionized water, and half of the specimens' windows were covered with an acid-resistant nail polish to maintain the baseline lesion. […] The concentrations were optimized to simulate the in vivo conditions in which the normal salivary flow is 0.5 mL/min (2). Thus, one third of the mints (g) were dissolved in 0.5 ml of artificial saliva and the ingredients concentrations were kept at same ratio as in the original mint formulation. […] All solutions were prepared daily prior to use. In addition to pH cycling, the overnight re-mineralization solutions had bacterial collagenase from Chlostridium Histolycum (100 μg/ml) to simulate enzymatic challenge. Each specimen was sectioned perpendicularly to the varnished area so that each section included the baseline and post-treatment lesions. Half of each sample was used for fluorescence microscopy and the other half was used for micro-computed tomography. Specimens (n=6 per group) were fixed in 10% neutral buffered formalin for 24 h. Specimens were held securely in a specimen holder, which were soaked with phosphate-buffered saline (PBS). […] The manufacturer's software was used to filter noise and segment the data at a threshold of 220. Tissue mineral density (based on a standard calibration phantom provided by the manufacturer) was determined (mg/cc of hydroxyapatite). […] The assumption of equality of variances and normal distribution of errors were verified using Levene's test. […]

[3] = five xylitol lozenges spaced across the day, caries-active adults; cited from earlier work
[4] = In vitro pH-proteolytic cycling model, overall re-mineralization and tissue observations; set-up: species or system bovine
Excerpt: (§1) An objective of the experimental study was to investigate the effects of mints containing bioactive agents, specifically the xylitol, ACP and eGCG, in the re-mineralization of root dentin surfaces. […] The caries lesions depths and porosity as well as mineral density (hydroxyapatite content) were estimated using fluorescence microscopy and micro-computed tomography.
as §1, with “The” for “An”, “this” for “the experimental”, “agents (e.g.” for “agents, specifically the”, “eGCG)” for “eGCG,”, “micro computed” for “micro-computed”
Extracted sound bovine incisors were freshly collected from a slaughterhouse, cleaned and stored at 4° C. in 0.1% thymol for no longer than 2 weeks. Two root fragments (5×4×1 mm) from the cervical portion (mesial and distal) of the root were obtained from each tooth using diamond disk mounted in a cutting machine (Isomet 1000, Buehler, Lake Bluff, IL, USA). The dentin surfaces were polished using #600 and #800 abrasive paper (Carbimet, Buehler) under constant water irrigation. The entire surface of the fragments was sealed with acid-resistant nail polish, except for a 4×3 mm window on the polished dentin surface. […]

[5] = Caries lesion depth by fluorescence microscopy after in vitro pH-proteolytic cycling; set-up: species or system bovine; details: after treatments and pH-proteolytic cycling for 8 days
Protocol: An objective of the experimental study was to investigate the effects of mints containing bioactive agents, specifically the xylitol, ACP and eGCG, in the re-mineralization of root dentin surfaces. […] The caries lesions depths and porosity as well as mineral density (hydroxyapatite content) were estimated using fluorescence microscopy and micro-computed tomography. Extracted sound bovine incisors were freshly collected from a slaughterhouse, cleaned and stored at 4° C. in 0.1% thymol for no longer than 2 weeks. […] Half of each sample was used for fluorescence microscopy and the other half was used for micro-computed tomography. […] Samples were analyzed with a Fluorescence Microscope (DM16000 B, Leica), using TEX and DIC (differential interference contrast) channels. Fluorescence intensity line profiles obtained in TEX channel images of the pre and post-treatment lesions were analyzed in Image J Software (NIH), thereby providing mean intensity values (per pixel) for red emission channel of each image. The fluorescence intensity is directly related to the porosity of the de-mineralized dentin, where increased porosity is directly related to increased fluorescence intensity. Fluorescence data was presented as percentage difference from post-treatment and pre-treatment lesions of each specimen. […]

Compound | decrease percentage of the mean Rhodamine fluorescence (F) exhibited by caries lesions [1] [%] | increase percentage of the apparent mineral density (mg HA/ccm) [2] [%] | caries-preventive effect on root surfaces [3] | incidence of smooth-surface, occusal-surface or proximal-surface caries, xylitol vs control participants [3] | dental tissue loss ([4]; after pH-proteolytic cycling and treatments, in artificial saliva) | caries re-mineralization (overall conclusion) ([4]; artificially induced root caries, in vitro pH-proteolytic cycling) | effect on mineral density of the caries lesion (in words) [2] | lesion porosity / fluorescence decrease compared to AS (negative control), statistical significance ([1]; after treatments and pH-proteolytic cycling for 8 days) | caries lesion depth change from initial lesions (in words) [5]
[F-].[Na+] [NaF, sodium fluoride] | 5.60 | 165.53 | – | – | – | – | – | – | –
OC[C@@H](O)[C@H](O)[C@@H](O)CO [xylitol] | 34.92 | – | appears to have a caries-preventive effect on root surfaces | no statistically significant difference | dental tissue loss occurs; also recorded: Dental tissue loss was mainly observed | no significant effect | does not help to increase mineral density | – | –
O=C(O[C@@H]1Cc2c(O)cc(O)cc2O[C@@H]1c1cc(O)c(O)c(O)c1)c1cc(O)c(O)c(O)c1 [eGCG, epigallocatechin gallate] | 85.72 | 70.12 | – | – | – | – | promotes mineral density similar to fluoride; also recorded: increased mineral density | statistically significant differences; also recorded: significant decrease in lesion porosity | Significant (% caries lesion depth) decrease
